# Assay results taken from US8258114B2, “Modulation of glucose-6-phosphatase translocase expression” (Isis Pharmaceuticals, Inc., priority 2004, dated 2012).
# Oligonucleotides are written 5' to 3', each unit as a sugar letter and its base; * is a phosphorothioate linkage, no mark a phosphodiester; rarer units and linkages stand in square brackets, end groups in braces. Plain capitals give the bases only. e = 2'-O-(2-methoxyethyl) (MOE); [5mC] = 5-methylcytosine; d = 2'-deoxy (DNA)
# Tested on: mouse glucose-6-phosphatase translocase mRNA
# Assay: Antisense inhibition of mouse glucose-6-phosphatase translocase mRNA in primary mouse hepatocytes, 150 nM, LIPOFECTIN (Table 22)
# Type: cell-based
# Conditions: real-time PCR
# Protocol: Primary mouse hepatocytes were prepared from CD-1 mice purchased from Charles River Labs. Primary mouse hepatocytes were routinely cultured in Hepatocyte Attachment Media supplemented with 10% fetal bovine serum (Invitrogen Life Technologies, Carlsbad, Calif.), 250 nM dexamethasone, and 10 nM bovine insulin (Sigma-Aldrich, St. Louis, Mo.). Cells were seeded into 96-well plates (Falcon-Primaria #353872, BD Biosciences, Bedford, Mass.) at a density of approximately 4,000-6,000 cells/well for use in oligomeric compound transfection experiments.
# When cells reached 65-75% confluency, they were treated with oligonucleotide. Oligonucleotide was mixed with LIPOFECTIN™ Invitrogen Life Technologies, Carlsbad, Calif.) in Opti-MEM™-1 reduced serum medium (Invitrogen Life Technologies, Carlsbad, Calif.) to achieve the desired concentration of oligonucleotide and a LIPOFECTIN™ concentration of 2.5 or 3 μg/mL per 100 nM oligonucleotide. This transfection mixture was incubated at room temperature for approximately 0.5 hours. For cells grown in 96-well plates, wells were washed once with 100 μL OPTI-MEM™-1 and then treated with 130 μL of the transfection mixture. Cells grown in 24-well plates or other standard tissue culture plates are treated similarly, using appropriate volumes of medium and oligonucleotide. Cells are treated and data are obtained in duplicate or triplicate. After approximately 4-7 hours of treatment at 37° C., the medium containing the transfection mixture was replaced with fresh culture medium. Cells were harvested 16-24 hours after oligonucleotide treatment.
# Quantitation of glucose 6-phosphatase translocase mRNA levels was accomplished by real-time quantitative PCR using the ABI PRISM™ 7600, 7700, or 7900 Sequence Detection System (PE-Applied Biosystems, Foster City, Calif.) according to manufacturer's instructions.
# Prior to quantitative PCR analysis, primer-probe sets specific to the target gene being measured were evaluated for their ability to be “multiplexed” with a GAPDH amplification reaction. After isolation the RNA is subjected to sequential reverse transcriptase (RT) reaction and real-time PCR, both of which are performed in the same well. RT and PCR reagents were obtained from Invitrogen Life Technologies (Carlsbad, Calif.). […] The RT reaction was carried out by incubation for 30 minutes at 48° C. Following a 10 minute incubation at 95° C. to activate the PLATINUM® Taq, 40 cycles of a two-step PCR protocol were carried out: 95° C. for 15 seconds (denaturation) followed by 60° C. for 1.5 minutes (annealing/extension).
# Gene target quantities obtained by RT, real-time PCR were normalized using either the expression level of GAPDH, a gene whose expression is constant, or by quantifying total RNA using RiboGreen™ (Molecular Probes, Inc. Eugene, Oreg.). GAPDH expression was quantified by RT, real-time PCR, by being run simultaneously with the target, multiplexing, or separately. Total RNA was quantified using RiboGreen™ RNA quantification reagent (Molecular Probes, Inc. Eugene, Oreg.).
# A series of oligomeric compounds was designed to target different regions of mouse glucose-6-phosphatase translocase, using published sequences cited in Table 1. All compounds in Table 22 are chimeric oligonucleotides (“gapmers”) 20 nucleotides in length, composed of a central “gap” region consisting of 10 2′-deoxynucleotides, which is flanked on both sides (5′ and 3′) by five-nucleotide “wings”. The wings are composed of 2′-O-(2-methoxyethyl) nucleotides, also known as 2′-MOE nucleotides. The internucleoside (backbone) linkages are phosphorothioate throughout the oligonucleotide. All cytidine residues are 5-methylcytidines. The compounds were analyzed for their effect on gene target mRNA levels by quantitative real-time PCR as described in other examples herein, using the following primer-probe set designed to hybridize to mouse glucose-6-phosphatase translocase: • forward primer: […]
row,Substance,% Inhib of mouse glucose-6-phosphatase translocase mRNA levels
1,145647 (antisense e[5mC]*eT*e[5mC]*eT*eT*dG*dA*d[5mC]*dT*dG*d[5mC]*dT*d[5mC]*d[5mC]*dT*eG*e[5mC]*eT*eT*eG) [compound 145647],52%
2,145648 (antisense e[5mC]*eT*eT*e[5mC]*eT*dG*dA*d[5mC]*d[5mC]*dA*d[5mC]*dA*dG*dA*d[5mC]*eT*e[5mC]*eT*eT*eG) [compound 145648],26%
3,145649 (antisense eG*e[5mC]*e[5mC]*e[5mC]*eA*d[5mC]*dT*d[5mC]*d[5mC]*dA*dG*dT*dA*d[5mC]*dT*eT*e[5mC]*eT*eG*eA) [compound 145649],61%
4,145650 (antisense eA*eA*eG*e[5mC]*eT*dG*dG*d[5mC]*d[5mC]*d[5mC]*dT*dG*d[5mC]*dT*dG*eG*e[5mC]*e[5mC]*e[5mC]*eA) [compound 145650],54%
5,145651 (antisense eG*eT*eA*eG*eA*dA*dA*dA*dA*dG*d[5mC]*dT*dG*dG*d[5mC]*e[5mC]*e[5mC]*eT*eG*e[5mC]) [compound 145651],31%
6,145653 (antisense eT*eT*eG*eG*eG*d[5mC]*dT*dG*d[5mC]*d[5mC]*dA*dT*dG*dG*dT*eA*eG*eA*eA*eA) [compound 145653],42%
7,145654 (antisense eA*eG*eT*eG*e[5mC]*dG*dA*dT*dA*dG*dT*dA*dG*d[5mC]*d[5mC]*eG*eT*eA*eG*e[5mC]) [compound 145654],47%
8,145655 (antisense eA*eA*e[5mC]*eA*eT*dG*dG*d[5mC]*d[5mC]*dG*d[5mC]*dA*dA*dA*dT*eA*eT*eG*eA*e[5mC]) [compound 145655],29%
9,145656 (antisense eT*eA*e[5mC]*eA*eG*dG*d[5mC]*dT*dG*dT*dA*dG*d[5mC]*d[5mC]*dT*e[5mC]*e[5mC]*eA*eA*eA) [compound 145656],47%
10,145658 (antisense eT*eG*eG*eT*e[5mC]*dT*dG*dA*d[5mC]*dA*dG*dA*dA*d[5mC]*d[5mC]*e[5mC]*e[5mC]*eG*e[5mC]*eT) [compound 145658],36%
11,145659 (antisense e[5mC]*eG*e[5mC]*eT*e[5mC]*dA*dT*d[5mC]*dT*dG*dG*dT*d[5mC]*dT*dG*eA*e[5mC]*eA*eG*eA) [compound 145659],15%
12,145660 (antisense eT*eG*eT*eG*eG*dA*dG*d[5mC]*dT*d[5mC]*d[5mC]*dA*dT*dG*dA*eG*eA*eA*eG*eA) [compound 145660],40%
13,145661 (antisense eA*e[5mC]*e[5mC]*eA*eA*dG*dG*dA*dG*d[5mC]*dA*dG*d[5mC]*dA*dA*eA*eG*eG*e[5mC]*eT) [compound 145661],25%
14,145663 (antisense eT*eT*eG*eA*e[5mC]*dA*dA*d[5mC]*dA*d[5mC]*dA*dG*d[5mC]*d[5mC]*d[5mC]*eA*e[5mC]*e[5mC]*eA*eA) [compound 145663],48%
15,145665 (antisense e[5mC]*e[5mC]*eA*eG*e[5mC]*d[5mC]*dA*dG*dG*dT*dT*d[5mC]*dA*dT*dG*e[5mC]*eT*eG*eG*eT) [compound 145665],22%
16,145666 (antisense eA*eA*eG*eA*eT*dA*dG*dG*dT*d[5mC]*d[5mC]*d[5mC]*dA*dA*dA*e[5mC]*eT*eT*e[5mC]*e[5mC]) [compound 145666],28%
17,145669 (antisense e[5mC]*eA*e[5mC]*eA*eG*dT*dG*d[5mC]*d[5mC]*d[5mC]*d[5mC]*dA*dG*dA*d[5mC]*eA*eG*eG*eG*e[5mC]) [compound 145669],9%

row,Substance,% Inhib of mouse glucose-6-phosphatase translocase mRNA levels
1,145672 (antisense eT*eG*eT*eG*eG*dA*dT*dG*dA*dG*d[5mC]*dA*dG*d[5mC]*dA*eG*eA*e[5mC]*eA*eG) [compound 145672],8%
2,145674 (antisense e[5mC]*eA*eG*e[5mC]*eA*dG*dG*dT*dT*d[5mC]*dA*dT*dT*dG*dT*eG*eG*eA*eT*eG) [compound 145674],43%
3,145675 (antisense eA*eA*e[5mC]*eA*eT*d[5mC]*dA*dG*d[5mC]*dA*dG*dG*dT*dT*d[5mC]*eA*eT*eT*eG*eT) [compound 145675],23%
4,"145676 (antisense GAGTCCAACATCAGCAGGTTCA; 2'-MOE gapmer, further chemistry not given here) [compound 145676]",51%
5,145677 (antisense e[5mC]*eT*eT*e[5mC]*eT*dT*dG*d[5mC]*d[5mC]*d[5mC]*dT*d[5mC]*dA*dG*dA*eG*eG*eG*e[5mC]*eA) [compound 145677],9%
6,145678 (antisense eG*eA*eG*e[5mC]*e[5mC]*d[5mC]*dT*dT*d[5mC]*dT*dT*dG*d[5mC]*d[5mC]*d[5mC]*eT*e[5mC]*eA*eG*eA) [compound 145678],60%
7,145679 (antisense eT*e[5mC]*eA*eA*eG*dG*dA*dG*d[5mC]*d[5mC]*d[5mC]*dT*dT*d[5mC]*dT*eT*eG*e[5mC]*e[5mC]*e[5mC]) [compound 145679],17%
8,145680 (antisense e[5mC]*eT*e[5mC]*e[5mC]*eT*dT*d[5mC]*dA*dA*dG*dG*dA*dG*d[5mC]*d[5mC]*e[5mC]*eT*eT*e[5mC]*eT) [compound 145680],0%
9,145681 (antisense e[5mC]*eT*e[5mC]*eT*e[5mC]*d[5mC]*dT*d[5mC]*d[5mC]*dT*dT*d[5mC]*dA*dA*dG*eG*eA*eG*e[5mC]*e[5mC]) [compound 145681],36%
10,145682 (antisense eG*eG*eG*eT*eG*d[5mC]*dT*d[5mC]*dT*d[5mC]*d[5mC]*dT*d[5mC]*d[5mC]*dT*eT*e[5mC]*eA*eA*eG) [compound 145682],31%
11,145683 (antisense e[5mC]*eA*eG*e[5mC]*eT*d[5mC]*d[5mC]*dT*dG*dT*dA*dG*dG*dG*dT*eG*e[5mC]*eT*e[5mC]*eT) [compound 145683],0%
12,145684 (antisense eT*e[5mC]*eT*eT*eT*dA*d[5mC]*dT*d[5mC]*d[5mC]*dG*dA*dA*dG*dA*e[5mC]*e[5mC]*eA*e[5mC]*eA) [compound 145684],43%
13,145687 (antisense e[5mC]*eT*e[5mC]*e[5mC]*eT*dG*dG*dA*dT*dA*dA*dG*dG*dA*dA*eG*eA*eA*e[5mC]*eT) [compound 145687],12%
14,145688 (antisense eA*e[5mC]*eT*eG*e[5mC]*d[5mC]*d[5mC]*dT*d[5mC]*dT*d[5mC]*dT*d[5mC]*d[5mC]*dT*eG*eG*eA*eT*eA) [compound 145688],25%
15,145689 (antisense e[5mC]*eA*eA*eG*eG*dG*d[5mC]*dG*dG*dA*d[5mC]*dT*dG*d[5mC]*d[5mC]*e[5mC]*eT*e[5mC]*eT*e[5mC]) [compound 145689],34%
16,145690 (antisense e[5mC]*eT*e[5mC]*e[5mC]*eG*dA*d[5mC]*d[5mC]*dT*d[5mC]*dG*dA*dG*dG*dG*e[5mC]*eA*e[5mC]*eT*eG) [compound 145690],56%
